Experiments:
[1] = Half life in human liver microsomes; format: ADME
Hepatitis C virus = assay: Antiviral activity against HCV genotype 1b Con1 expressing NS3 protease infected in human Huh7.5 cells assessed as reduction in viral RNA replication by luciferase reporter gene assay; format: functional, cell-based, Hepacivirus hominis; conditions: genotype 1b Con1, Huh-7
[2] = Cardiotoxicity in rabbit heart assessed as change in heart rate at 10 uM perfused for 60 mins measured every 10 mins during perfusion by electrophysiology method relative to control; format: toxicity, tissue-based, Oryctolagus cuniculus; conditions: 1 h
[3] = AUC in cannulated Sprague-Dawley rat plasma at 15 mg/kg administered via oral gavage measured up to 24 hrs post dose by LC/MS/MS analysis; format: ADME, organism-based; parameters: dose 15 mg/kg, time < 24 hr, route oral
[4] = Drug uptake in cannulated Sprague-Dawley rat liver at 15 mg/kg administered via oral gavage measured at 24 hrs post dose by LC/MS/MS analysis; format: ADME, organism-based; conditions: read-out: Drug uptake
[5] = Half life in cannulated Sprague-Dawley rat plasma at 5 mg/kg, iv administered as 10 mins infusion by LC/MS/MS analysis; format: ADME, organism-based
[6] = Cardiotoxicity in rabbit heart assessed as change in sinoatrial node recovery time at 10 uM perfused for 20 mins measured for 1 min by electrophysiology method relative to control; format: toxicity, tissue-based, Oryctolagus cuniculus
[7] = Cardiotoxicity in rabbit heart assessed as change in heart rate at 10 uM perfused for 20 mins measured for 1 min by electrophysiology method relative to control; format: toxicity, tissue-based, Oryctolagus cuniculus
[8] = Oral bioavailability in cannulated Sprague-Dawley rat plasma at 15 mg/kg administered via gavage measured up to 24 hrs post dose by LC/MS/MS analysis; format: ADME, organism-based
[9] = Cardiotoxicity in rabbit heart assessed as change in sinoatrial node recovery time at 10 uM perfused for 60 mins measured every 10 mins during perfusion by electrophysiology method relative to control; format: toxicity, tissue-based, Oryctolagus cuniculus; conditions: 1 h
[10] = Clearance in cannulated Sprague-Dawley rat plasma at 5 mg/kg, iv administered as 10 mins infusion measured up to 24 hrs post dose by LC/MS/MS analysis; format: ADME, organism-based

Row | half-life [1] | EC50 (Hepatitis C virus) | AUC at 24 h [3] | concentration at 24 h [4] | half-life [5] | bioavailability [8] | clearance [10] | Compound | Activity [2] | Activity [6] | Activity [7] | Activity [9]
1 | 0.0833 h | 12.5 nM | – | – | – | – | – | C=C(C)[C@@H]1C[C@]1(NC(=O)[C@@H]1C[C@@H](Oc2ncc(OC)c3ccc(Cl)cc23)CN1C(=O)[C@@H](NC(=O)OC(C)(C)C)C(C)(C)C)C(=O)NS(=O)(=O)C1CC1 | – | – | – | –
2 | > 3.33 h | 146 nM | – | – | – | – | – | COc1cnc(O[C@@H]2C[C@@H](C(=O)N[C@]3(C(=O)NS(=O)(=O)C4CC4)C[C@H]3C3CC3)N(C(=O)[C@@H](NC(=O)O[C@@H](C)C(F)(F)F)C(C)(C)C)C2)c2cc(Cl)ccc12 | – | – | – | –
3 | 0.583 h | 66.7 nM | – | – | – | – | – | COc1cnc(O[C@@H]2C[C@@H](C(=O)N[C@]3(C(=O)NS(=O)(=O)C4CC4)C[C@H]3C3CC3)N(C(=O)[C@@H](NC(=O)OC(C)C)C(C)(C)C)C2)c2cc(Cl)ccc12 | – | – | – | –
4 | 1.63 h | 6.3 nM | – | – | – | – | – | CC[C@@H](C)[C@H](NC(=O)O[C@H](C)C(F)(F)F)C(=O)N1C[C@H](Oc2ncc(OC)c3ccc(Cl)cc23)C[C@H]1C(=O)N[C@]1(C(=O)NS(=O)(=O)C2CC2)C[C@H]1C1CC1 | – | – | – | –
5 | 3.33 h | 13.3 nM | – | – | – | – | – | COc1cnc(O[C@@H]2C[C@@H](C(=O)N[C@]3(C(=O)NS(=O)(=O)C4CC4)C[C@H]3C3CC3)N(C(=O)[C@@H](NC(=O)O[C@H](C)C(F)(F)F)C3CC3)C2)c2cc(Cl)ccc12 | – | – | – | –
6 | 1.38 h | 18.3 nM | 19.6 µM·h | 35.7 µM | 10 h | 44.2% | 5 to 5.2 mL/min/kg | COc1cnc(O[C@@H]2C[C@@H](C(=O)N[C@]3(C(=O)NS(=O)(=O)C4CC4)C[C@H]3C3CC3)N(C(=O)[C@@H](NC(=O)OC(C)(C)C)C(C)(C)C)C2)c2cc(Cl)ccc12 | -7.5% | 18.5% | -3.5% | 20%
7 | 2.37 h | 3.4 nM | 7.9 µM·h | 30.7 µM | 10 h | 81% | 30.2 mL/min/kg | COc1cnc(O[C@@H]2C[C@@H](C(=O)N[C@]3(C(=O)NS(=O)(=O)C4CC4)C[C@H]3C3CC3)N(C(=O)[C@@H](NC(=O)O[C@H](C)C(F)(F)F)C(C)(C)C)C2)c2ccc(Cl)cc12 | – | – | – | –
8 | 0.65 h | 19.8 nM | – | – | – | – | – | COc1cnc(O[C@@H]2C[C@@H](C(=O)N[C@]3(C(=O)NS(=O)(=O)C4CC4)C[C@H]3C3CC3)N(C(=O)[C@@H](NC(=O)OC3CCCC3)C(C)(C)C)C2)c2cc(Cl)ccc12 | – | – | – | –
9 | 1.77 h | 2.4 nM | 0.79 to 0.794 µM·h | 19.2 µM | 3 h | 3.5% | 14 mL/min/kg | COc1ccc2c(O[C@@H]3C[C@@H](C(=O)N[C@]4(C(=O)NS(=O)(=O)C5CC5)C[C@H]4C4CC4)N(C(=O)[C@@H](NC(=O)O[C@H](C)C(F)(F)F)C(C)(C)C)C3)nc(OC)cc2c1 | – | – | -58% | –
10 | 0.567 h | 16 nM | 6.9 µM·h | 40 µM | 12 h | 43% | 18 mL/min/kg | CC[C@@H]1C[C@]1(NC(=O)[C@@H]1C[C@@H](Oc2ncc(OC)c3ccc(Cl)cc23)CN1C(=O)[C@@H](NC(=O)OC(C)(C)C)C(C)(C)C)C(=O)NS(=O)(=O)C1CC1 | -35% | 26% | -12% | 148%
11 | – | 48.6 nM | – | – | – | – | – | COc1cnc(O[C@@H]2C[C@@H](C(=O)N[C@]3(C(=O)NS(=O)(=O)C4CC4)C[C@H]3C3CC3)N(C(=O)[C@@H](NC(=O)OCC(F)(F)F)C(C)(C)C)C2)c2cc(Cl)ccc12 | – | – | – | –
12 | 1.38 h | > 100 nM | – | – | – | – | – | COc1cnc(O[C@@H]2C[C@@H](C(=O)N[C@]3(C(=O)NS(=O)(=O)C4CC4)C[C@H]3C(C)C)N(C(=O)[C@@H](NC(=O)OC(C)(C)C)C(C)(C)C)C2)c2cc(Cl)ccc12 | – | – | – | –
13 | 2.58 h | 8 nM | – | – | – | – | – | COc1cnc(O[C@@H]2C[C@@H](C(=O)N[C@]3(C(=O)NS(=O)(=O)C4CC4)C[C@H]3C3CC3)N(C(=O)[C@@H](NC(=O)O[C@H](C)C(F)(F)F)C(C)C)C2)c2cc(Cl)ccc12 | – | – | – | –
14 | 2 h | 3 nM | 6.3 µM·h | 24 µM | 5.5 h | 42.4% | 40.4 mL/min/kg | COc1cnc(O[C@@H]2C[C@@H](C(=O)N[C@]3(C(=O)NS(=O)(=O)C4CC4)C[C@H]3C3CC3)N(C(=O)[C@@H](NC(=O)O[C@H](C)C(F)(F)F)C(C)(C)C)C2)c2cc(Cl)cc(Cl)c12 | – | – | – | –
15 | 2 h | 7.2 nM | – | – | – | – | – | CCC(CC)[C@H](NC(=O)O[C@H](C)C(F)(F)F)C(=O)N1C[C@H](Oc2ncc(OC)c3ccc(Cl)cc23)C[C@H]1C(=O)N[C@]1(C(=O)NS(=O)(=O)C2CC2)C[C@H]1C1CC1 | – | – | – | –
16 | 0.4 h | 3.7 nM | – | – | – | – | – | COc1cnc(O[C@@H]2C[C@@H](C(=O)N[C@]3(C(=O)NS(=O)(=O)C4CC4)C[C@H]3C3CC3)N(C(=O)[C@@H](NC(=O)OC3(C)CCCC3)C(C)(C)C)C2)c2cc(Cl)ccc12 | – | – | – | –
17 | 2.13 h | 1.9 nM | 19.1 µM·h | 55.3 µM | 14 h | 35.5% | 4.7 mL/min/kg | COc1cnc(O[C@@H]2C[C@@H](C(=O)N[C@]3(C(=O)NS(=O)(=O)C4CC4)C[C@H]3C3CC3)N(C(=O)[C@@H](NC(=O)OC(C)(C)C(F)(F)F)C(C)(C)C)C2)c2cc(Cl)ccc12 | – | 50.4% | -14.3% | –
18 | 0.967 h | 16.3 nM | – | – | – | – | – | COc1cnc(O[C@@H]2C[C@@H](C(=O)N[C@]3(C(=O)NS(=O)(=O)C4CC4)C[C@H]3C3CC3)N(C(=O)[C@@H](NC(=O)OC3CCC3)C(C)(C)C)C2)c2cc(Cl)ccc12 | – | – | – | –
19 | 3.33 h | 1.8 nM | 8.6 µM·h | 49.3 µM | 10.9 h | 122% | 40.4 to 40.7 mL/min/kg | COc1cnc(O[C@@H]2C[C@@H](C(=O)N[C@]3(C(=O)NS(=O)(=O)C4CC4)C[C@H]3C3CC3)N(C(=O)[C@@H](NC(=O)O[C@H](C)C(F)(F)F)C(C)(C)C)C2)c2cccc(Cl)c12 | – | 53% | -19% | –
20 | 1.85 h | 8.6 nM | – | – | – | – | – | COc1cnc(O[C@@H]2C[C@@H](C(=O)N[C@]3(C(=O)NS(=O)(=O)C4CC4)C[C@H]3C3CC3)N(C(=O)[C@@H](NC(=O)O[C@H](C)C(F)(F)F)C3CCC3)C2)c2cc(Cl)ccc12 | – | – | – | –
21 | 0.55 h | – | 14.1 µM·h | 0.74 µM | – | – | – | C=C[C@@H]1C[C@]1(NC(=O)[C@@H]1C[C@@H](Oc2nccc3cc(OC)ccc23)CN1C(=O)[C@@H](NC(=O)OC(C)(C)C)C(C)(C)C)C(=O)NS(=O)(=O)C1CC1 | – | 290% | -25% | –
22 | 2 h | 58.2 nM | – | – | – | – | – | COc1cnc(O[C@@H]2C[C@@H](C(=O)N[C@]3(C(=O)NS(=O)(=O)C4CC4)C[C@H]3C3CC3)N(C(=O)[C@@H](NC(=O)OC(C)(C)C(F)F)C(C)(C)C)C2)c2cc(Cl)ccc12 | – | – | – | –
